Assay results as given in patent EP3154958B1, “PHOSPHATIDYLINOSITOL 3-KINASE INHIBITORS” (Gilead Sciences, Inc., priority 2014, dated 2015).

Columns and labels:
Format in all cases: biochemical
PI3Kδ = target: T1, PI3Kδ (Homo sapiens, UniProt O00329); assay: TR-FRET enzymatic activity assay, PI3Kδ; settings: recombinant heterodimeric PI3Kδ 25-50 pM, 2× Km ATP, 30 minutes at 25°C
T1 construct: made in house
Procedure, shortened: (§1)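 Each PI3K isoform is tested in an enzymatic format. Signal comes from time-resolved fluorescence energy transfer.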

PI3Kγ = target: T2, PI3Kγ (Homo sapiens, UniProt P48736); assay: TR-FRET enzymatic activity assay, PI3Kγ; settings: recombinant heterodimeric PI3Kγ 2 nM, 2× Km ATP, 30 minutes at 25°C
T2 construct: made in house
T2 sequence (P48736 whole entry): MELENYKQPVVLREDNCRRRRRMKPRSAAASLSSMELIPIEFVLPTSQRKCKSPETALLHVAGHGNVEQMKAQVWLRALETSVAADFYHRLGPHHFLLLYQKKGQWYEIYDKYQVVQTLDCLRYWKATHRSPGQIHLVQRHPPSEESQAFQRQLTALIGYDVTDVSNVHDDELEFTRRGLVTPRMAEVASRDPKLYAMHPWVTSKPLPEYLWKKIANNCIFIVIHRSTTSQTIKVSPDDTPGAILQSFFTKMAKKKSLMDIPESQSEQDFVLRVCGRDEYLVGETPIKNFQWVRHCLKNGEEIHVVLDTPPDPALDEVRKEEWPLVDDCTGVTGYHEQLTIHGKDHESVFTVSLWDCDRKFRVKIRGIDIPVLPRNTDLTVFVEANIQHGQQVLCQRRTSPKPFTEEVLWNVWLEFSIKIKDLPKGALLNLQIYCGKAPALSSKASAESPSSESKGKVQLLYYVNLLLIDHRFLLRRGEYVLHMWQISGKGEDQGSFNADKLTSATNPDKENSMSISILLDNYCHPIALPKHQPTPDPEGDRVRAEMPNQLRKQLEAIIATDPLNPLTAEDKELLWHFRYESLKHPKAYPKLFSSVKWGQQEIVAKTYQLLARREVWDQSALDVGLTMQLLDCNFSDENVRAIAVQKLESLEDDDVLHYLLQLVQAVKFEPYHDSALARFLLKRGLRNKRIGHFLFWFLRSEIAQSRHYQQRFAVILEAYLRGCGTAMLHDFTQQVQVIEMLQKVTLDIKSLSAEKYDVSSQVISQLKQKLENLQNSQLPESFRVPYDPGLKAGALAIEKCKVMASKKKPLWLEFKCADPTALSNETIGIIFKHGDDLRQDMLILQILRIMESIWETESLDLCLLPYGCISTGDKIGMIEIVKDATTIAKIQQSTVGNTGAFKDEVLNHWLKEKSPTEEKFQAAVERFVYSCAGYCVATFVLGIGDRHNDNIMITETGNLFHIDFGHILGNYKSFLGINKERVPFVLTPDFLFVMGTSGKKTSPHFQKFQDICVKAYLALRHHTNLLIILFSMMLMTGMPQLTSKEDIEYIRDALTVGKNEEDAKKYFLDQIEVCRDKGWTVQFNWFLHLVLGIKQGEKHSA
T2 sequence (Q8WYR1 whole entry partner): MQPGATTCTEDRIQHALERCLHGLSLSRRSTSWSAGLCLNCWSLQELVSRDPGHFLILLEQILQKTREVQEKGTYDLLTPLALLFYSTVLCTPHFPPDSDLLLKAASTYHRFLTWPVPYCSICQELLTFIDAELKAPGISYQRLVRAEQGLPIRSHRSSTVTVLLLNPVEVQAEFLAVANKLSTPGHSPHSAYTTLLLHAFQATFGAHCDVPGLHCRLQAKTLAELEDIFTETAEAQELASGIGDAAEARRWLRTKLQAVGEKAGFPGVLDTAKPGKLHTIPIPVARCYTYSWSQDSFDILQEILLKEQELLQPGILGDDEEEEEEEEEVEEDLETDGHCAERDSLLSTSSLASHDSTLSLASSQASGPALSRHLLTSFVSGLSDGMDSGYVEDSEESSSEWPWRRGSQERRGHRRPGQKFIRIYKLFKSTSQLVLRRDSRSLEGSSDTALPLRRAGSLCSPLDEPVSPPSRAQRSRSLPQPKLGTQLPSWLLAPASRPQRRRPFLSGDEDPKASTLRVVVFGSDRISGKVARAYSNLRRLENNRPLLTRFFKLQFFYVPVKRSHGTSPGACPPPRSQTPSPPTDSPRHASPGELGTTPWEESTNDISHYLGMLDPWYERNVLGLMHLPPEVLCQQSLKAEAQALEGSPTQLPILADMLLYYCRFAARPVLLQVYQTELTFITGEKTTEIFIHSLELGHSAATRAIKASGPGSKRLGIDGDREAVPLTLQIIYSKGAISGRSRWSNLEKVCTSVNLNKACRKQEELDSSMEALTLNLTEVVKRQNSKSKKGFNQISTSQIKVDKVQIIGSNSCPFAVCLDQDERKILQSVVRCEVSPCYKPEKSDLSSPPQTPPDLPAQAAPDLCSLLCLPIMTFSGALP
Procedure, shortened: as §1

PI3Kβ = target: T3, PI3Kβ (Homo sapiens, UniProt P42338); assay: TR-FRET enzymatic activity assay, PI3Kβ; settings: recombinant heterodimeric PI3Kβ 25-50 pM, 2× Km ATP, 30 minutes at 25°C
T3 construct: made in house
T3 sequence (P42338 whole entry): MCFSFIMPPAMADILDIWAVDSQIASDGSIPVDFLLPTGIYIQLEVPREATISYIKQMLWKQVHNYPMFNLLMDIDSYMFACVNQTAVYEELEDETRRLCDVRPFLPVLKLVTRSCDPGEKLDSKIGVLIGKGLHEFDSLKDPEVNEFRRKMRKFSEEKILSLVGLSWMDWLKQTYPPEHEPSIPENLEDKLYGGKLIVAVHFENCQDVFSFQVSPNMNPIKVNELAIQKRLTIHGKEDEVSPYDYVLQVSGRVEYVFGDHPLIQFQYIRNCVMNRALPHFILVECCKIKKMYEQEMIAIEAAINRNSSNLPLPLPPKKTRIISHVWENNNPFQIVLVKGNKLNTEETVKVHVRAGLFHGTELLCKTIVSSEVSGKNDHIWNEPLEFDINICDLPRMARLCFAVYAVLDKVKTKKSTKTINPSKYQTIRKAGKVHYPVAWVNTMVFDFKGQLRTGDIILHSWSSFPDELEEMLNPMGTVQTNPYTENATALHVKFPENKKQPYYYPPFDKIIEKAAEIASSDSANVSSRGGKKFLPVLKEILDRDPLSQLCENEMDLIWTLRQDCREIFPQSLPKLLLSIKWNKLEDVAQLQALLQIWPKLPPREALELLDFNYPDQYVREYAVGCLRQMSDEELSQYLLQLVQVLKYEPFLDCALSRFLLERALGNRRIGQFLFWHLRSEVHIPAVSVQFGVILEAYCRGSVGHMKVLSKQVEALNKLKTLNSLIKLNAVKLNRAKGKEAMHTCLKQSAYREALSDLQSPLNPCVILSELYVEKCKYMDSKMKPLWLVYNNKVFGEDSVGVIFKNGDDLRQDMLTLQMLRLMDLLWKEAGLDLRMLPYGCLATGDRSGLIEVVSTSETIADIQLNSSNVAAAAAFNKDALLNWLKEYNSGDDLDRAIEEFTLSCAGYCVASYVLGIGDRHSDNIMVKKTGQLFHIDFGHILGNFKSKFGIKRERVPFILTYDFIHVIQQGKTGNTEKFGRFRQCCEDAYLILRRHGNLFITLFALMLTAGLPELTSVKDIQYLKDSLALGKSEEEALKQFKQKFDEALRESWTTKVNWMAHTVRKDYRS
T3 sequence (P27986 whole entry partner): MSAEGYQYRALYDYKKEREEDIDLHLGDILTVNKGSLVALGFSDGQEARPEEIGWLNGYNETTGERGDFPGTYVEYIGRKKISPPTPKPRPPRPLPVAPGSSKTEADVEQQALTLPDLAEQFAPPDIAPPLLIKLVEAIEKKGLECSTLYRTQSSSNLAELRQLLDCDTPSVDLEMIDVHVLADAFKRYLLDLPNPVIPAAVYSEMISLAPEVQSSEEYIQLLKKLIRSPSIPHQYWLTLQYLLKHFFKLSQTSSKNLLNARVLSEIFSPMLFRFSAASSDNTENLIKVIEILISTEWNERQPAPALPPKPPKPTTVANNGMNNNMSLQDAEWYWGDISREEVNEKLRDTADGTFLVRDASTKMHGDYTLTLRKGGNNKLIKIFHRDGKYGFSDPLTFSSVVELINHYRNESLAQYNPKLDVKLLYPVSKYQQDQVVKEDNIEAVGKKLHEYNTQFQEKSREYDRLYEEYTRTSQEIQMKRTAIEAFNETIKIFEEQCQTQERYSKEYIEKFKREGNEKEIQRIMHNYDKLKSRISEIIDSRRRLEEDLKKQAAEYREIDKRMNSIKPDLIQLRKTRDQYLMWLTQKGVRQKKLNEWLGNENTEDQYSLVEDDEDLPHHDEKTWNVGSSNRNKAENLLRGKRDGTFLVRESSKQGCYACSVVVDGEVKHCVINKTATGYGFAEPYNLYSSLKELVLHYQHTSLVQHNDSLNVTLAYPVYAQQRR
Procedure, shortened: as §1

T1 sequence (O00329 whole entry): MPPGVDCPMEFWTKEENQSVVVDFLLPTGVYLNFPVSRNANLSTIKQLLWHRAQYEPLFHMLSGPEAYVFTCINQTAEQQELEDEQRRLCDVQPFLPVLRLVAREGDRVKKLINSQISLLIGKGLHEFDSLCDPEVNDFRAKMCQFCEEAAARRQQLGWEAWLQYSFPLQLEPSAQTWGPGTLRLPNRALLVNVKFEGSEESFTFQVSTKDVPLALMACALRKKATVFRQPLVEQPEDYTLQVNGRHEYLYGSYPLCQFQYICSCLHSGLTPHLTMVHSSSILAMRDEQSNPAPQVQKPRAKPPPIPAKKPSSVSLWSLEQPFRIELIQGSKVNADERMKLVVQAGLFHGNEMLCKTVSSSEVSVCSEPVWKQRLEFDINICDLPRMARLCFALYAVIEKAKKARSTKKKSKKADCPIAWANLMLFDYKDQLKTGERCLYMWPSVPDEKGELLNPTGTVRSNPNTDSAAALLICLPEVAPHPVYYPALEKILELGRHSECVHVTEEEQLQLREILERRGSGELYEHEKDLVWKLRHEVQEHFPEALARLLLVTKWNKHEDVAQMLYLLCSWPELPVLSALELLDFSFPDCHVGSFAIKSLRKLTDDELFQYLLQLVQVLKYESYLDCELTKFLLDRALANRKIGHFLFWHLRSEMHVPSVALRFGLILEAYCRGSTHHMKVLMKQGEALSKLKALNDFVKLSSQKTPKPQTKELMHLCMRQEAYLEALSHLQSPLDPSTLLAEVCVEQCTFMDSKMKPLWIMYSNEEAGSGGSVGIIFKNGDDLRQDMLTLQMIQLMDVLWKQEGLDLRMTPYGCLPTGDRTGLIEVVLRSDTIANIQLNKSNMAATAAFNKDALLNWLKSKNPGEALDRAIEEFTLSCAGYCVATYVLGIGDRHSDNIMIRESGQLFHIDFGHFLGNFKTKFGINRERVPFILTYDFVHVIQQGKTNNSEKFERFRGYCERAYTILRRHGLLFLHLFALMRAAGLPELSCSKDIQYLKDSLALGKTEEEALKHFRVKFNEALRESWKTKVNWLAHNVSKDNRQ
T1 sequence (P27986 whole entry partner): as the sequence (P27986 whole entry partner) above

Row | Structure (SMILES) | IC50 (PI3Kδ) [nM] | IC50 (PI3Kγ) [nM] | IC50 (PI3Kβ) [nM]
1 | CC(C)C[C@H](Nc1ncnc(N)c1C#N)c1nc2cccc(Cl)c2c(=O)n1N1CCNCC1 [Compound 74, (S)-4-amino-6-((1-(5-chloro-4-oxo-3-(piperazin-1-yl)-3,4-dihydroquinazolin-2-yl)-3-methylbutyl)amino)pyrimidine-5-carbonitrile] | 32 | > 10000 | 570
2 | CC(C)C[C@H](Nc1nc(N)nc(N)c1C#N)c1nc2cccc(Cl)c2c(=O)n1N1CCNCC1 [Compound 75, (S)-2,4-diamino-6-((1-(5-chloro-4-oxo-3-(piperazin-1-yl)-3,4-dihydroquinazolin-2-yl)-3-methylbutyl)amino)pyrimidine-5-carbonitrile] | 15 | > 10000 | 37
3 | CC[C@H](Nc1ncnc(N)c1C#N)c1nc2cccc(Cl)c2c(=O)n1N1CCNCC1 [Compound 79, (S)-4-amino-6-((1-(5-chloro-4-oxo-3-(piperazin-1-yl)-3,4-dihydroquinazolin-2-yl)propyl)amino)pyrimidine-5-carbonitrile] | 7 | > 10000 | 78
4 | C[C@H](Nc1ncnc2cccnc12)c1nc2cccc(Cl)c2c(=O)n1C1CCCNCC1 (stereo partly drawn) [Compound 81, 3-(azepan-4-yl)-5-chloro-2-((S)-1-(pyrido[3,2-d]pyrimidin-4-ylamino)ethyl)quinazolin-4(3H)-one] | 35 | > 10000 | 520
5 | C[C@H](Nc1ncnn2ccnc12)c1nc2cccc(Cl)c2c(=O)n1C1CCCNCC1 (stereo partly drawn) [Compound 82, 3-(azepan-4-yl)-5-chloro-2-((S)-1-(imidazo[2,1-f][1,2,4]triazin-4-ylamino)ethyl)quinazolin-4(3H)-one] | 22 | > 10000 | 480
6 | C[C@H](Nc1ncnc(N)c1C#N)c1nc2cccc(Cl)c2c(=O)n1C1CCCNC1 (stereo partly drawn) [Compound 83, 4-amino-6-(((1S)-1-(5-chloro-4-oxo-3-(piperidin-3-yl)-3,4-dihydroquinazolin-2-yl)ethyl)amino)pyrimidine-5-carbonitrile] | 8 | > 10000 | 270
7 | C[C@H](Nc1ncnc(N)c1C#N)c1nc2cccc(Cl)c2c(=O)n1C1CCNC1 (stereo partly drawn) [Compound 85, 4-amino-6-(((1S)-1-(5-chloro-4-oxo-3-(pyrrolidin-3-yl)-3,4-dihydroquinazolin-2-yl)ethyl)amino)pyrimidine-5-carbonitrile] | 7 | > 10000 | 160
8 | CC[C@H](Nc1nc(N)nc(N)c1C#N)c1nc2cccc(Cl)c2c(=O)n1N1CCN(Cc2ccc(C(F)(F)F)cc2)CC1 [Compound 87, (S)-2,4-diamino-6-((1-(5-chloro-4-oxo-3-(4-(4-(trifluoromethyl)benzyl)piperazin-1-yl)-3,4-dihydroquinazolin-2-yl)propyl)amino)pyrimidine-5-carbonitrile] | 57 | > 10000 | 10000
9 | CC(C)N1CCN(n2c([C@H](C)Nc3nc(N)nc(N)c3C#N)nc3cccc(Cl)c3c2=O)CC1 [Compound 88, (S)-2,4-diamino-6-((1-(5-chloro-3-(4-isopropylpiperazin-1-yl)-4-oxo-3,4-dihydroquinazolin-2-yl)ethyl)amino)pyrimidine-5-carbonitrile] | 54 | 5800 | 120
10 | CC[C@H](Nc1nc(N)nc(C)c1C#N)c1nc2cccc(Cl)c2c(=O)n1N1CCN(Cc2ccc(C(F)(F)F)cc2)CC1 [Compound 89, (S)-2-amino-4-((1-(5-chloro-4-oxo-3-(4-(4-(trifluoromethyl)benzyl)piperazin-1-yl)-3,4-dihydroquinazolin-2-yl)propyl)amino)-6-methylpyrimidine-5-carbonitrile] | 50 | > 10000 | 4500
11 | CC[C@H](Nc1nc(N)nc(C)c1C#N)c1nc2cccc(Cl)c2c(=O)n1N1CCN(Cc2ccc(F)cc2)CC1 [Compound 90, (S)-2-amino-4-((1-(5-chloro-3-(4-(4-fluorobenzyl)piperazin-1-yl)-4-oxo-3,4-dihydroquinazolin-2-yl)propyl)amino)-6-methylpyrimidine-5-carbonitrile] | 23 | 2000 | 52
12 | CC[C@H](Nc1nc(N)nc(N)c1C#N)c1nc2cccc(Cl)c2c(=O)n1N1CCN(Cc2ccc(F)cc2)CC1 [Compound 91, (S)-2,4-diamino-6-((1-(5-chloro-3-(4-(4-fluorobenzyl)piperazin-1-yl)-4-oxo-3,4-dihydroquinazolin-2-yl)propyl)amino)pyrimidine-5-carbonitrile] | 22 | 930 | 59
13 | CC[C@H](Nc1nc(N)nc(N)c1C#N)c1nc2cccc(Cl)c2c(=O)n1N1CCN(Cc2ccc(OC)cc2)CC1 [Compound 92, (S)-2,4-diamino-6-((1-(5-chloro-3-(4-(4-methoxybenzyl)piperazin-1-yl)-4-oxo-3,4-dihydroquinazolin-2-yl)propyl)amino)pyrimidine-5-carbonitrile] | 27 | 1400 | 41

Now those with a lower IC50 (PI3Kδ), led by results:

Row | IC50 (PI3Kδ) [nM] | IC50 (PI3Kγ) [nM] | IC50 (PI3Kβ) [nM] | Structure (SMILES)
14 | 2 | > 10000 | 25 | C[C@H](Nc1ncnc(N)c1C#N)c1nc2c(Cl)ccc(Cl)c2c(=O)n1N1CCNCC1 [Compound 76, (S)-4-amino-6-((1-(5,8-dichloro-4-oxo-3-(piperazin-1-yl)-3,4-dihydroquinazolin-2-yl)ethyl)amino)pyrimidine-5-carbonitrile]
15 | 1 | 2900 | 1 | N#Cc1c(N)nc(N)nc1N[C@H](c1nc2cccc(Cl)c2c(=O)n1N1CCNCC1)C1CC1 [Compound 77, (S)-2,4-diamino-6-(((5-chloro-4-oxo-3-(piperazin-1-yl)-3,4-dihydroquinazolin-2-yl)(cyclopropyl)methyl)amino)pyrimidine-5-carbonitrile]
16 | 2 | > 10000 | 18 | O=c1c2c(Cl)cccc2nc([C@@H](Nc2ncnc3scnc23)C2CC2)n1N1CCNCC1 [Compound 78, (S)-5-chloro-2-(cyclopropyl(thiazolo[5,4-d]pyrimidin-7-ylamino)methyl)-3-(piperazin-1-yl)quinazolin-4(3H)-one]
17 | 4 | > 10000 | 25 | CC[C@H](Nc1ncnc2scnc12)c1nc2cccc(Cl)c2c(=O)n1N1CCNCC1 [Compound 80, (S)-5-chloro-3-(piperazin-1-yl)-2-(1-(thiazolo[5,4-d]pyrimidin-7-ylamino)propyl)quinazolin-4(3H)-one]
18 | 2 | > 10000 | 32 | C[C@H](Nc1ncnc(N)c1C#N)c1nc2cccc(Cl)c2c(=O)n1C1CCCNCC1 (stereo partly drawn) [Compound 84, 4-amino-6-(((1S)-1-(3-(azepan-4-yl)-5-chloro-4-oxo-3,4-dihydroquinazolin-2-yl)ethyl)amino)pyrimidine-5-carbonitrile]
19 | 3 | > 10000 | 83 | C[C@H](Nc1ncnc(N)c1C#N)c1nc2cccc(Cl)c2c(=O)n1C1CCNCC1 [Compound 86, (S)-4-amino-6-((1-(5-chloro-4-oxo-3-(piperidin-4-yl)-3,4-dihydroquinazolin-2-yl)ethyl)amino)pyrimidine-5-carbonitrile]
